Measurements taken from ChEMBL document CHEMBL1136647, “Visual detection of AMP and real-time monitoring of cyclic nucleotide phosphodiesterase (PDE) activity in neutral aqueous solution. Chemosensor-coupled assay of PDE and PDE inhibitors” (Bioorg Med Chem Lett, 2003).

Assay: Inhibitory concentration against phosphodiesterase from bovine heart

IC50: 36 µM
Structure (SMILES): CC(C)Cn1c(=O)n(C)c(=O)c2nc[nH]c21 [ISOBUTYLMETHYLXANTHINE]
